Test results taken from PMC10435995 (Life Science Alliance, 2023).

Target: T1, hDHFR (dihydrofolate reductase) (Homo sapiens, UniProt P00374)
T1 construct: gene DHFR; recombinant hDHFR (8456-DR-100; R&D Systems)
T1 sequence (P00374 1-187): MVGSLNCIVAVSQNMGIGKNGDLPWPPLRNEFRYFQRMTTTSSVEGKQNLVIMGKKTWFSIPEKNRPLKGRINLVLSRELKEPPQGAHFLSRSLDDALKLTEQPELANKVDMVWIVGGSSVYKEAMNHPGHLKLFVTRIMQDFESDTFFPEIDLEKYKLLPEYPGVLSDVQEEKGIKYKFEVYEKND
Experiment: ITC at […]°C without NADPH (also enzyme inhibition, CETSA, TPP)
Format: binding
Details: read-out: Average Kd (±s.d.)

Kd: 28.1 ± 18.4 nM
Structure (SMILES): Cc1nc(N)nc(N)c1/C=C/C1(c2ccc(C(F)(F)F)cc2)CC1 [C1]
